{"source": "patent US10323228B2", "about": "“Differentiation of hepatocyte-like cells from stem cells” (Agency for Science, Technology and Research, priority 2014, dated 2019)", "key": {"[1]": {"test_system": "SM-Hep (hepatocytes derived from hESCs using small molecules)", "assay": "Cell viability assay (MTT) of small molecule-derived hepatocytes after 24 hours drug treatment", "type": "cell-based", "conditions": "Homo sapiens, Hepatocyte, read-out: IC50 SM-Hep", "method": "(§1) The differentiation was initiated when hESCs reached a confluence level of approximately 80%. […] Briefly, basal differentiation medium was composed of 60% DMEM-low glucose (Gibco, Carlsbad, Calif., USA), 40% MCDB-201-water (Sigma), 0.25× Linoleic acid—Bovine serum albumin (LA-BSA) (Sigma), 0.25× Insulin-transferrin-selenium (ITS) (Sigma), 100 U/mL Penicillin and 100 μg/mL Streptomycin (Cellgro), 0.1 mM L-Ascorbic Acid (Sigma), 1 μM Dexamethasone (Sigma) and 110 μM 2-mercaptoethanol (Gibco).\n(§2) Cell viability of differentiated hepatocytes was measured 24 hours after treatment with drugs using CellTiter 96® Non-Radioactive Cell Proliferation Assay (MTT) (Promega, Madison, Wis., USA) according to manufacturer's instructions. The following drugs were used for the cell viability assays: Acetaminophen, Diclofenac, Digoxin, Chlorpromazine, Troglitazone and Quinidine (all drugs from Sigma). Stock solutions of drugs were prepared in DMSO and then diluted in media to obtain desired working concentrations. Controls were treated with DMSO alone (in absence of test compounds) and considered as 100% viability value.\n(§3) One of the major applications of hepatocytes is toxicity screening in order to aid drug development and discovery. Researchers have tried to predict drug-induced cytotoxicity in vitro using HepG2, HepaRG primary human hepatocyte (PH) as well as hESC/hiPSC-derived hepatocyte like cells. Although primary human hepatocyte (PH) are considered the gold standard for drug metabolism and toxicity in vitro, cells lines such as HepG2 and HepaRG are less expensive than primary human hepatocyte (PH) and reproducible experiments are easier to perform than they are with primary human hepatocyte (PHs). However, 30% of the compounds were incorrectly classified as nontoxic. To overcome these problems, it would be highly advantageous if hESC/hiPSC derived hepatocytes could be used to predict drug-induced toxicity. To examine its applicability to drug screening, small molecule-derived hepatocytes (SM-Hep) were treated with various drugs that cause hepatotoxicity. Cell viability, assessed using MTT assay, was compared to growth factor-derived hepatoctyes (GF-Hep) as well as primary human hepatocyte (PH). The susceptibility of small molecule-derived hepatocytes (SM-Hep) to all the drugs tested was similar to that of the growth factor-derived hepatoctyes (GF-Hep) (FIG. 6)."}, "[2]": {"test_system": "primary human hepatocytes (PH, PHHs)", "assay": "Cell viability assay (MTT) of primary human hepatocytes after 24 hours drug treatment", "type": "cell-based", "conditions": "Hepatocyte, read-out: IC50 PH", "method": "Cryopreserved PHHs were obtained from Life Technologies (Carlsbad, Calif., USA) and BD Biosciences (Franklin Lakes, N.J., USA). The cells were thawed in a 37° C. water bath and resuspended in pre-warmed InVitroGRO HT Thawing Medium (Celsis, In Vitro Technologies, Baltimore, Md., USA). The cells were centrifuged at 800 rpm at 4° C. and the cell pellet was resuspended in InVitroGRO CP Plating Medium (containing 0.02% Torpedo Antibiotic Mix). Cells were counted and 50,000 cells were plated into each well of 96-well plates (Nunc, Naperville, Ill., USA) pre-coated with neutralized 1.5 mg/ml PureCol® Bovine Collagen solution, Type 1 (Advanced Biomatrix, San Diego, Calif., USA). After allowing for cell attachment for 4 hours, the media was changed to William's media E (Sigma-Aldrich, Singapore), supplemented with 1 mg/ml bovine serum albumin (Sigma), 1× insulin-transferrin-selenium and 1×MEM non-essential amino acids (Gibco, Carlsbad, Calif., USA), 100 nM dexamethasone (Sigma), 0.3 mg/ml L-glutamine (Lonza, Basel, Switzerland), 100 U/ml penicillin and 100 μg/ml streptomycin (Cellgro, Manassas, Va.). Culture medium was changed daily. Three different lots of hepatocytes were used for the experiments. All assays were performed after 2 days of culture.\nas §2, §3"}, "[3]": {"test_system": "GF-Hep (hepatocytes derived from hESCs using growth factors)", "assay": "Cell viability assay (MTT) of growth factor-derived hepatocytes after 24 hours drug treatment", "type": "cell-based", "conditions": "Homo sapiens, Hepatocyte, read-out: IC50 GF-Hep", "method": "as §1, §2, §3"}, "hESCs (H9)": {"test_system": "hESCs (H9)", "assay": "qPCR of pluripotency and definitive endoderm markers in hESCs treated for 6 days", "type": "cell-based, human", "conditions": "among small molecule combinations", "method": "hESC cell line, H9 (WiCell Research Institute, Madison, Wis.) was cultured and propagated on tissue culture plates coated with matrigel (BD Biosciences, San Jose, Calif., USA) in mTeSRTM 1 media (Stem Cell Technologies, Vancouver, BC, Canada). Cultures were passaged at intervals of 5-7 days by incubation with 1 mg/ml dispase (Stem Cell Technologies) for 5 minutes at 37° C. Colonies were picked under microscopic guidance and replated at 1:3 to 1:6 split ratios. […] (20 ng/ml). […] In human embryonic stem cells (hESCs), manipulations of Nodal and Wnt signaling have been exploited to direct differentiation towards definitive endoderm (DE). […] Therefore, to induce differentiation of HESCs into definitive endoderm using small molecules, the present study analyzed effects of compounds which could substitute for Activin A or/and Wnt signaling. […] Cells were cultured in the presence of diverse combinations of these three compounds for 6 days, and expression of pluripotency marker (OCT4) and definitive endoderm markers (SOX17 and FoxA2) were analyzed using qPCR. […] The expression of pluripotency markers (OCT4, Nanog and SOX2) and definitive endoderm (DE) markers (SOX17 and FOXA2) were analyzed using qPCR. […]"}, "[4]": {"conditions": "Table 1 (initial results), cell viability, 24 hours treatment"}, "[5]": {"conditions": "Table 2 (updated results), cell viability, 24 hours treatment, PHHs"}}, "note": "Read-outs that look alike come from different tables or passages of the source."}
{"smiles": "Cc1c(C)c2c(c(C)c1O)CCC(C)(COc1ccc(CC3SC(=O)NC3=O)cc1)O2", "note": "(stereo not shown) [Troglitazone]", "values": [{"measurement": "IC50", "setting": "[1]; [4]", "result": 31.9, "unit": "µM"}, {"measurement": "IC50", "setting": "[2]; [4]", "result": 85, "unit": "µM"}, {"measurement": "IC50", "setting": "[2]; [5]", "result": 29.7, "unit": "µM"}, {"measurement": "IC50", "setting": "[3]; [4]", "result": 33.7, "unit": "µM"}]}
{"smiles": "O=C(O)CCCCCC(=O)NN=C1CCCC1", "note": "[IDE-2]", "values": [{"measurement": "FOXA2 expression", "setting": "hESCs (H9)", "result": "highest FOXA2 expression"}, {"measurement": "SOX17 expression", "setting": "hESCs (H9)", "result": "no SOX17 expression was detected"}]}
{"smiles": "CN(C)CCCN1c2ccccc2Sc2ccc(Cl)cc21", "note": "[Chlorpromazine]", "values": [{"measurement": "IC50", "setting": "[1]; [4]", "result": 66.9, "unit": "µM"}, {"measurement": "IC50", "setting": "[2]; [4]", "result": 71.8, "unit": "µM"}, {"measurement": "IC50", "setting": "[2]; [5]", "result": 71.8, "unit": "µM"}, {"measurement": "IC50", "setting": "[3]; [4]", "result": 61.3, "unit": "µM"}]}
{"smiles": "C[C@H]1O[C@@H](O[C@H]2[C@@H](O)C[C@H](O[C@H]3[C@@H](O)C[C@H](O[C@H]4CC[C@@]5(C)[C@H](CC[C@@H]6[C@@H]5C[C@@H](O)[C@]5(C)[C@@H](C7=CC(=O)OC7)CC[C@]65O)C4)O[C@@H]3C)O[C@@H]2C)C[C@H](O)[C@@H]1O", "note": "[Digoxin]", "values": [{"measurement": "IC50", "setting": "[1]; 24 h", "result": 0.36, "unit": "µM"}, {"measurement": "IC50", "setting": "[2]", "result": 0.34, "unit": "µM"}, {"measurement": "IC50", "setting": "[3]; 24 h", "result": 0.25, "unit": "µM"}]}
{"smiles": "CC(=O)Nc1ccc(O)cc1", "note": "[Acetaminophen]", "values": [{"measurement": "IC50", "setting": "[1]; [4]", "result": 38100, "unit": "µM"}, {"measurement": "IC50", "setting": "[2]; [4]", "result": 45200, "unit": "µM"}, {"measurement": "IC50", "setting": "[2]; [5]", "result": 45200, "unit": "µM"}, {"measurement": "IC50", "setting": "[3]; [4]", "result": 46000, "unit": "µM"}]}
{"smiles": "C=C[C@H]1C[N@@]2CC[C@H]1C[C@@H]2[C@@H](O)c1ccnc2ccc(OC)cc12", "note": "[Quinidine]", "values": [{"measurement": "IC50", "setting": "[1]; [4]", "result": 728, "unit": "µM"}, {"measurement": "IC50", "setting": "[2]; [4]", "result": 198, "unit": "µM"}, {"measurement": "IC50", "setting": "[2]; [5]", "result": 563, "unit": "µM"}, {"measurement": "IC50", "setting": "[3]; [4]", "result": 538, "unit": "µM"}]}
{"smiles": "O=C(O)Cc1ccccc1Nc1c(Cl)cccc1Cl", "note": "[Diclofenac]", "values": [{"measurement": "IC50", "setting": "[1]; [4]", "result": 1930, "unit": "µM"}, {"measurement": "IC50", "setting": "[2]; [4]", "result": 3590, "unit": "µM"}, {"measurement": "IC50", "setting": "[2]; [5]", "result": 3590, "unit": "µM"}, {"measurement": "IC50", "setting": "[3]; [4]", "result": 1860, "unit": "µM"}]}
